1 substance from US10905117B2, “Antimicrobial agent containing polyalkyleneimine derivative” (NIPPON SHOKUBAI CO., LTD, priority 2014, dated 2021) can be followed below.

What all share (type): cell-based
The test system of experiment [1] is Escherichia coli (NBRC-3972) and/or Staphylococcus aureus (NBRC-12732). Put plainly: MIC in the presence of an anionic surfactant. The conditions noted are these: in the presence of linear alkylbenzene sulfate 80 ppm and polyoxyalkylenealkyl ether sulfate 80 ppm. How it is done: An aqueous solution containing the antimicrobial agent was serially diluted by two fold with a Mueller-Hinton medium to prepare dilution series of a medium containing the antimicrobial agent. After that, the medium containing the antimicrobial agent at each concentration was added, in an amount of 50 μl each, to a 96 well polystyrene plate. Next, colonies of Escherichia coli (NBRC-3972) and/or Staphylococcus aureus (NBRC-12732) which have been grown for 18 hours in a Mueller-Hinton agar medium were suspended in a Butterfield's buffer solution to prepare a liquid containing microbial cells of 10×10^8 cells/mL or so. The prepared liquid containing microbial cells was diluted to 10×10^6 cells/mL or so in a Mueller-Hinton medium, and added in an amount of 50 μl to each of the dilution series prepared in the above. […] Presence or absence of the growth of the bacterial cells was determined with a naked eye by following an increase in turbidity.
As for the anionic surfactant, linear alkylbenzene sulfate was used at 80 ppm and polyoxyalkylenealkyl ether sulfate was used at 80 ppm.

For experiment [2], the system named is Escherichia coli (NBRC-3972). Put plainly: Minimum growth inhibitory concentration (MIC). The conditions noted are these: 0.1% by weight agent with 1% by weight NaOH, pH 12.5, stored 18 days at 55° C. How it is done:
(§1) An aqueous solution containing the antimicrobial agent was serially diluted by two fold with a Mueller-Hinton medium to prepare dilution series of a medium containing the antimicrobial agent. After that, the medium containing the antimicrobial agent at each concentration was added, in an amount of 50 μl each, to a 96 well polystyrene plate. […] The prepared liquid containing microbial cells was diluted to 10×10^6 cells/mL or so in a Mueller-Hinton medium, and added in an amount of 50 μl to each of the dilution series prepared in the above. […] Presence or absence of the growth of the bacterial cells was determined with a naked eye by following an increase in turbidity. To an aqueous solution added with the polymer 1 which has been obtained in Preparation Example 1 and benzalkonium chloride at 0.1% by weight, various kinds of alkali modifying agent shown in Table 8 were mixed at 1% by weight to prepare an antimicrobial agent composition. The storage stability test was carried out for the antimicrobial agent compositions for 18 days at 55° C. […] Meanwhile, MIC values were described as concentration of the antimicrobial agent.

In experiment [3] the test system is Staphylococcus aureus (NBRC-12732). Put plainly: Minimum growth inhibitory concentration (MIC). The conditions noted are these: 0.1% by weight agent with 1% by weight NaOH, pH 12.5, stored 18 days at 55° C. How it is done:
as §1

For Benzalkonium chloride, in experiment [1], the MIC was found to be 625 ppm. In addition, the “MIC Escherichia coli after storage stability test” value in experiment [2] is reported as 250 ppm. Also, the “MIC Staphylococcus aureus after storage stability test” value in experiment [3] amounted to 250 ppm.
